Laboratory results reported in PubChem BioAssay (NCI).
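The compound was tested at five concentrations on cells cultured in 96-well plates, with a 48-hour exposure period. Definition used: TGI = concentration required for complete inhibition of growth.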

What was measured:
Assay in all cases: DTP human tumour cell line panel, 48 h
A549 NSCLC = test system: A549 NSCLC
CAKI-1 renal = test system: CAKI-1 renal
HCT-116 colon = test system: HCT-116 colon
HCT-15 colon = test system: HCT-15 colon
HS 578T breast = test system: HS 578T breast
KM12 colon = test system: KM12 colon
MALME-3M melanoma = test system: MALME-3M melanoma
OVCAR-3 ovarian = test system: OVCAR-3 ovarian
OVCAR-4 ovarian = test system: OVCAR-4 ovarian
RPMI-8226 leukemia = test system: RPMI-8226 leukemia
RXF 393 renal = test system: RXF 393 renal
SF-268 CNS = test system: SF-268 CNS
SF-295 CNS = test system: SF-295 CNS
SF-539 CNS = test system: SF-539 CNS
SK-OV-3 ovarian = test system: SK-OV-3 ovarian
SN12C renal = test system: SN12C renal
SR leukemia = test system: SR leukemia
TK-10 renal = test system: TK-10 renal
U251 CNS = test system: U251 CNS
UO-31 renal = test system: UO-31 renal

SMILES | TGI (A549 NSCLC) | TGI (CAKI-1 renal) | TGI (HCT-116 colon) | TGI (HCT-15 colon) | TGI (HS 578T breast) | TGI (KM12 colon) | TGI (MALME-3M melanoma) | TGI (OVCAR-3 ovarian) | TGI (OVCAR-4 ovarian) | TGI (RPMI-8226 leukemia) | TGI (RXF 393 renal) | TGI (SF-268 CNS) | TGI (SF-295 CNS) | TGI (SF-539 CNS) | TGI (SK-OV-3 ovarian) | TGI (SN12C renal) | TGI (SR leukemia) | TGI (TK-10 renal) | TGI (U251 CNS) | TGI (UO-31 renal)
O=[N+]([O-])/C(C(Cl)=C(Cl)Cl)=C(/Cl)Sc1ccccc1 | 13.5 µM | 6.57 µM | 2.58 µM | 4.85 µM | 7.14 µM | 32 µM | 3.03 µM | 3.61 µM | 3.75 µM | 1.15 µM | 9.86 µM | 5.71 µM | 37.6 µM | 3.78 µM | 34.3 µM | 3.55 µM | 2.38 µM | 5.9 µM | 5.04 µM | 3.02 µM
CC(O)C1(CNc2cc(Cl)nc(N)n2)CCC1 (stereo unspecified) | > 100 µM | > 100 µM | > 100 µM | > 100 µM | > 100 µM | > 100 µM | > 100 µM | > 100 µM | > 100 µM | > 100 µM | > 100 µM |  | > 100 µM | > 100 µM | > 100 µM | > 100 µM | > 100 µM | > 100 µM | > 100 µM | > 100 µM
Clc1ccc(C2C3COc4ccccc4C3=NN2c2ccccc2)cc1 (stereo unspecified) | > 100 µM | > 100 µM | > 100 µM | > 100 µM | > 100 µM | > 100 µM | > 100 µM | > 100 µM | > 100 µM | 7.32 µM | > 100 µM | > 100 µM | > 100 µM | > 100 µM | > 100 µM | > 100 µM | 1.78 µM | > 100 µM | > 100 µM | > 100 µM
Cc1c(N=Nc2ccc(Cl)cc2)c(-c2ccccc2)n(C2OC(CO)C(O)C(O)C2O)c(=S)c1C#N (stereo unspecified) | 35.3 µM | 34 µM | 28.2 µM | 33.9 µM | 51.6 µM | 35.4 µM | 46.4 µM | 32.5 µM | 36 µM | > 100 µM | 28.7 µM | 44.8 µM | 73.9 µM | 41 µM | 30.6 µM | 32.5 µM | > 100 µM | 44.4 µM | 25.3 µM | 34.2 µM
CN1C2CCC1CC(=CCOC(c1ccc(F)cc1)c1ccc(F)cc1)C2 | 32.4 µM | 30.6 µM | 24.6 µM | 29.6 µM | 27.5 µM | 29.6 µM | 27.2 µM | 31.3 µM | 31.9 µM | 38 µM | 28.2 µM | 27 µM | 30.9 µM | 31.9 µM | 31.3 µM | 33.5 µM | 37.3 µM | 28.5 µM | 33.2 µM | 21.8 µM
CC(=O)c1c(C)n([O-])c2cc(Cl)c(Cl)cc2[n+]1=O | 56.2 µM | 58.1 µM | > 100 µM | > 100 µM | 74 µM | 33.5 µM | 26.4 µM | 88.5 µM | 63.8 µM | 25.4 µM | > 100 µM | > 100 µM | > 100 µM | 72.5 µM | 54.4 µM | 86.2 µM | 62.2 µM | 71.3 µM | > 100 µM | 32.9 µM
COC(=O)C1=C(O)C(C(=O)OC)[C@]2(O)[C@H](C(=O)OC)[C@H]1C[C@@H](c1ccc(C(F)(F)F)cc1)[C@H]2C(=O)OC (stereo partly specified) | > 100 µM | > 100 µM | 5.96 µM | > 100 µM | > 100 µM | 53.3 µM | 22.4 µM | 54.1 µM | > 100 µM | > 100 µM | 6.5 µM | > 100 µM | 48.3 µM | 4 µM | > 100 µM | 27.6 µM | > 100 µM | 22.5 µM | 14.9 µM | 8.42 µM
CC(CO)(CO)N1C(=O)C2C3C=CC(C3)C2C1=O (stereo unspecified) | > 100 µM | > 100 µM | > 100 µM | > 100 µM | > 100 µM | > 100 µM | > 100 µM | > 100 µM | > 100 µM | > 100 µM | > 100 µM | > 100 µM | > 100 µM | > 100 µM | > 100 µM | > 100 µM | > 100 µM | > 100 µM | > 100 µM | > 100 µM
Cn1cc(NC(=O)Nc2cc(C(=O)Nc3cc(C(=O)Nc4ccc(S(=O)(=O)O)c5cc(S(=O)(=O)O)ccc45)n(C)c3)n(C)c2)cc1C(=O)Nc1cc(C(=O)Nc2ccc(S(=O)(=O)O)c3cc(S(=O)(=O)O)ccc23)n(C)c1 | > 100 µM |  | > 100 µM | > 100 µM | > 100 µM | > 100 µM | > 100 µM | > 100 µM | > 100 µM | > 100 µM | > 100 µM | > 100 µM | > 100 µM | > 100 µM | > 100 µM | > 100 µM | > 100 µM | > 100 µM | > 100 µM | > 100 µM
COc1cc(C2c3cc4c(cc3OC3(OC)COC(=O)C23)OCO4)cc(OC)c1OC(C)=O (stereo unspecified) | > 100 µM | > 100 µM | 38.7 µM | > 100 µM | > 100 µM | > 100 µM | > 100 µM | > 36.2 µM | > 100 µM | > 100 µM | 7.49 µM | > 100 µM | 5.38 µM | 2.25 µM | > 100 µM | > 100 µM | > 31.6 µM | > 100 µM | > 100 µM | > 100 µM
Cc1ccnc2[nH]c3ccccc3c(=O)c12 |  | 38.5 µM | > 100 µM | > 100 µM | 48 µM | 50.3 µM | 43.1 µM | 72.1 µM | > 100 µM | 95.8 µM | 41.8 µM | 45.5 µM | > 100 µM | 46.6 µM | > 100 µM | 52.4 µM | > 100 µM | 36.3 µM |  | > 100 µM
CCOC(=O)c1nnc2c(C(=O)OCC)c3ccccc3n2c1N | > 100 µM | > 100 µM | > 100 µM | > 100 µM | > 100 µM | 66.8 µM | 7.57 µM | > 100 µM | > 100 µM | 6.39 µM | > 100 µM | > 100 µM | > 100 µM | > 100 µM | 91.8 µM | 81.6 µM | > 100 µM | > 100 µM | > 100 µM | > 100 µM
